Experimental findings from publication PMC10301603, “Potent and Selective Benzothiazole-Based Antimitotics with Improved Water Solubility: Design, Synthesis, and Evaluation as Novel Anticancer Agents” (Pharmaceutics, 2023) are described below.

pIC50: −log10 of the molar value. ≈ marks a conversion by molar mass, not a printed value.

A short description of series [1]: Aqueous solubility, shake-flask method. Type of series: physicochemical. Particulars: shaking flask, buffered media at pH 7.0, mean of three. The procedure, abridged: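 Shake-flask: 5 mg compound in 500 µL pH 7.0 buffer stirred 72 h at room temperature, then filtered to remove insoluble material. Saturated filtrate quantified by UV absorbance at λmax against a per-compound calibration line; value is the mean of three independent measurements.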

The next series has as its system HEK-293 cells. As to the kind of experiment: Cell growth inhibition assay (MTT), non-tumorigenic cells. Type of series: cell-based, human. Particulars: non-tumorigenic cell line. The method, boiled down: (§1)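 Cells in DMEM with 10% FBS attached for 24 h, then treated 72 h; MTT read-out. Single-point screen at 10 µM, IC50 from 10^−10 to 10^−2 M series in triplicate, three experiments; efflux sensitivity assessed with 10 µM verapamil.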

The test system of the next series is U87MG cells. As to the kind of experiment: Immunofluorescence of cellular microtubules (confocal microscopy). Type of series: cell-based, human. As to conditions: 24 h, 8 50 nM, 9 and 14 100 nM. How it is done:
(§2) The 8 × 10^4 HeLa, MCF7, and U87 MG cells were seeded on 0.01% poly-L-lysine pre-coated square glass coverslips ([…]) deposited on 6-well plates (1 coverslip/well) and incubated in complete DMEM medium (see above) at 37 °C and 5% CO2 atmosphere for 24 h. Then, the culture medium was replaced by fresh complete DMEM, and cells were incubated in the presence or absence of selected compounds for 24 h. Untreated cells were used as negative controls. […] In that way, compounds with similar antiproliferative potencies were tested at the same concentrations. HeLa cells were treated with 200 nM of compounds 8 and 14 and 500 nM of compound 9; MCF7 cells were treated with 100 nM of compounds 8 and 14 and 500 nM of compound 9; and U87 MG cells were treated with 50 nM of compound 8 and 100 nM of compounds 9 and 14. After incubation, medium was removed and coverslips were washed three times with PBS, fixed in 4% formaldehyde in PBS for 10 min, permeabilized with 0.5% Triton X-100 (Sigma-Aldrich, St. Louis, MO, USA) in PBS for 90 s at 4 °C, and blocked with 10% BSA in PBS for 30 min. After four washes with PBS, the coverslips were incubated for 1 h with anti-α-tubulin mouse monoclonal antibody (Sigma-Aldrich, St. Louis, MO, USA), and diluted 1:200 in PBS containing 3% BSA. After four washes wish PBS, coverslips were incubated, in darkness, with fluorescent secondary antibody Alexa Fluor 488 goat anti-mouse IgG (Molecular Probes, Invitrogen, Eugenen, OR, USA), and diluted 1:400 in PBS containing 1% BSA for 1.5 h. After four washes with PBS, a drop of ProLong™ Gold Antifade Mountant containing DAPI (ThermoFisher, Waltham, MA, USA) was added for cell nuclei staining. Samples were analyzed via confocal microscopy using a LEICA SP5 microscope DMI-6000V model coupled to a LEICA LAS AF software computer.

Another series relates to MCF7 cells. The description is as above. Type of series: cell-based, human. As to conditions: MCF7, 24 h; 8 and 14 100 nM, 9 500 nM. As for the experimental part:
as §2

The subject of a further series is HeLa cells. The description is as above. Particulars: 24 h, 8 and 14 200 nM, 9 500 nM. Type of series: cell-based, human. As for the experimental part: as §2
The subject of a further series is GL261 cells. As to the kind of experiment: Cell growth inhibition assay (MTT). Type of series: cell-based, murine. The method, boiled down:
as §1

What is called Solubility is the concentration that dissolves in the medium under given conditions. Lower therefore signals a poorly soluble substance. Usually pIC50 stands for the IC50 on a negative log10 scale, so that one unit is a factor of ten. A high value points to a low IC50. In the case of `CCNC(=O)N(Cc1cccnc1)c1nc2ccc(OC)cc2s1` [Compound 8], the Solubility in series [1] was found to be 102 µg/mL (≈ 298 µM). The figures for the negative logarithm of the IC50 (pIC50) in the series on HEK-293 cells (72 h after drug exposure) and with GL261 cells (72 h after drug exposure) were 5.10 and 7.60, respectively. The “effect on the microtubule network” value in the series with U87MG cells, with MCF7 cells and in the series with HeLa cells was “disruption of the microtubule network” each time.
By solubility is commonly meant the dissolved amount per volume that the medium holds. `COc1ccc2nc(N(C=O)Cc3cccnc3)sc2c1` [Compound 14, N-(6-methoxybenzo[d]thiazol-2-yl)-N-(pyridin-3-ylmethyl)formamide] showed a solubility at 72 h in series [1] (pH 7.0 buffer, pH 7, aqueous buffer, thermodynamic from solid) of 95 µg/mL (≈ 317 µM). Also, the pIC50 in the series with HEK-293 cells (Homo sapiens, HEK293, 72 h after drug exposure) was 5.09; with GL261 cells (Mus musculus, GL261, 72 h after drug exposure), 7.46. The “effect on the microtubule network” value in the series with U87MG cells, in the series on MCF7 cells and with HeLa cells was “disruption of the microtubule network” throughout.
